{
  "source": "paper PMC3480388",
  "about": "(PLoS ONE, 2012)",
  "key": {"[1]": {"molecular_target": "T1, rP2X2 K69C mutant receptor (Rattus norvegicus, UniProt P49653, K69C)", "T1 construct": "expressed in transfected cells; host or cells: Xenopus laevis oocytes (RNA injection)", "T1 sequence (P49653 1-472 K69C)": "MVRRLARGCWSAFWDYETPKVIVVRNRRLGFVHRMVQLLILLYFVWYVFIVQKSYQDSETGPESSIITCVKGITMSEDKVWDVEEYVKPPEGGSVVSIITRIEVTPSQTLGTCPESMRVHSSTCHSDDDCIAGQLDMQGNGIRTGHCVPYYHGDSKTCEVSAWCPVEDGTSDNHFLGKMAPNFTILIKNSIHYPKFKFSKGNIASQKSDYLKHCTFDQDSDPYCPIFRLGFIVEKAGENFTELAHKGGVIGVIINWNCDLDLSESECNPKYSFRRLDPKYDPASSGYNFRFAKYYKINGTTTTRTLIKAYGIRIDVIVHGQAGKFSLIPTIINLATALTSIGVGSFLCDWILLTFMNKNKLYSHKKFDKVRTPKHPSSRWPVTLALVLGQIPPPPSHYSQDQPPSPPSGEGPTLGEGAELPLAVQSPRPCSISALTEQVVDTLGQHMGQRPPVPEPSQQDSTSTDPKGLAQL", "experiment": "Two-electrode voltage clamp of Xenopus oocytes expressing K69C mutant rP2X2", "type": "cell-based", "details": "for Response after challenge compound (nA) 100 µM Zn / Response after challenge compound (nA) 1,000 µM ATP / Response after challenge compound (nA) pH 6.5: test compound 50 µM, 5 minutes; for binding to and activation of K69C receptors: tested for responses to zinc, pH 6.5 and ATP, then challenge with AM546 or MTSEA; for restoration of ability to respond to ATP after test compound: test compound 1 mM, 1 minute, then 1,000 µM ATP; for amplitude of response to 100 µM zinc: K69C after AM546 then MTSEA, N = 6"}, "[2]": {"molecular_target": "T2, rP2X2 K308C mutant receptor (Rattus norvegicus, UniProt P49653, K308C)", "T2 construct": "expressed in transfected cells; host or cells: Xenopus laevis oocytes (RNA injection)", "T2 sequence (P49653 1-472 K308C)": "T1 sequence (P49653 1-472 K69C) with C69K, K308C", "experiment": "Two-electrode voltage clamp of Xenopus oocytes expressing K308C mutant rP2X2", "type": "cell-based", "details": "for restoration of ability to respond to ATP after test compound: test compound 1 mM, 15 minutes, then 1,000 µM ATP"}, "wild type rP2X2 [3]": {"molecular_target": "T3, wild type rP2X2 (Rattus norvegicus, UniProt P49653)", "T3 construct": "expressed in transfected cells; host or cells: Xenopus laevis oocytes (RNA injection)", "T3 sequence (P49653 1-472)": "T1 sequence (P49653 1-472 K69C) with C69K", "details": "cited from earlier work"}, "wild type rP2X2 [4]": {"molecular_target": "T3, wild type rP2X2", "experiment": "Two-electrode voltage clamp of Xenopus oocytes expressing wild type rP2X2", "type": "cell-based"}, "uninjected oocytes": {"tested_on": "uninjected oocytes", "experiment": "Two-electrode voltage clamp of uninjected oocytes (control)", "type": "cell-based, Xenopus laevis", "details": "N = 14", "procedure": "This study was carried out in strict accordance with the recommendations in the Guide for the Care and Use of Laboratory Animals of the National Institutes of Health. The protocol was approved by the University Committee on the Use and Care of Animals of the University of Michigan (Protocol 08396-4). The rP2X2 receptors were expressed in defolliculated stage V-VI Xenopus laevis oocytes. Oocytes were harvested using procedures that have been described in detail previously.\nRNAs encoding wild type and mutant rP2X2 receptors were synthesized using the mMessage mMachine T7 kit (Life Technologies, Grand Island, NY). Each oocyte was injected with 50 nl of RNA (10–20 ng/µl). Two-electrode voltage clamp experiments were performed 2–5 days after RNA injection. Except where indicated otherwise, recordings were made at a holding potential of −50 mV. Recording electrodes were pulled from thin walled borosilicate glass and had resistances of 0.2–1 MΩ. Currents were recorded with a Turbo TEC-03 or TEC-10 voltage clamp amplifier (npi electronic GmBH, Tamm, Germany). Data acquisition was performed using a Digidata 1322A interface controlled by pCLAMP 9 or 10 (Molecular Devices, Sunnyvale, CA).\nTo regulate the delivery of most test solutions into the recording chamber, we used a gravity fed valve array. […]"}, "[5]": {"molecular_target": "T4, rP2X2 K69C/H319K double mutant (Rattus norvegicus, UniProt P49653, H319K/K69C)", "T4 construct": "expressed in transfected cells; host or cells: Xenopus laevis oocytes (RNA injection)", "T4 sequence (P49653 1-472 K69C/H319K)": "T1 sequence (P49653 1-472 K69C) with H319K", "experiment": "Two-electrode voltage clamp of Xenopus oocytes expressing K69C/H319K double mutant rP2X2", "type": "cell-based"}, "[6]": {"tested_on": "P2X1 mutant homologous to K69A", "details": "ref [28]; cited from earlier work"}, "[7]": {"details": "AM546-treated K69C, no exogenous ATP"}},
  "note": "Substitutions are numbered along the chain they refer to. Where two headings read alike, the source gives them in different places.",
  "data": [
    {"compound": "Alexa Fluor 594 C5-maleimide [AM-594]", "values": [
      {"measurement": "Response after challenge compound (nA) 100 µM Zn", "setting": "[1]; then challenge compound MTSEA", "result": "−2±1", "unit": "nA"},
      {"measurement": "Response after challenge compound (nA) 1,000 µM ATP", "setting": "[1]; then challenge compound MTSEA", "result": "−26±7", "unit": "nA"},
      {"measurement": "Response after challenge compound (nA) pH 6.5", "setting": "[1]; then challenge compound MTSEA", "result": "−7±5", "unit": "nA"},
      {"measurement": "binding to and activation of K69C receptors", "setting": "[1]", "result": "could bind to, but not activate"}
    ]},
    {"compound": "C[N+](C)(C)CCSS(C)(=O)=O.[Cl-]", "note": "[MTSET, [2-(Trimethylammonium)ethyl] Methanethiosulfonate Chloride]", "values": [
      {"measurement": "restoration of ability to respond to ATP after test compound", "setting": "[2]", "result": "None of these compounds restored the ability"},
      {"measurement": "restoration of ability to respond to ATP after test compound", "setting": "[1]", "result": "None of these compounds restored the ability"}
    ]},
    {"compound": "[Cl-].[Cl-].[Zn+2]", "note": "[zinc, Zinc chloride]", "values": [
      {"measurement": "Izinc average current", "setting": "[2]; untreated K308C, 100 µM zinc, N = 6", "result": "−5±4", "unit": "nA"},
      {"measurement": "enhancement of the current by a zinc jump", "setting": "wild type rP2X2 [3]; untreated wild type, EC10 ATP, pH 7.5, 20 µM zinc, ref [17], [20]", "result": "approximately 8 fold"},
      {"measurement": "current as % of the maximum after addition of zinc", "setting": "wild type rP2X2 [4]; 20 µM zinc, ATP giving 10% of maximum at pH 7.5", "result": "80–90%"},
      {"measurement": "amplitude of response to 100 µM zinc", "setting": "[1]; with 1,000 µM ATP", "result": "2.74±0.47", "unit": "µA"},
      {"measurement": "amplitude of response to 100 µM zinc", "setting": "[1]; without ATP", "result": "0.39±0.06", "unit": "µA"},
      {"measurement": "average response to a zinc jump", "setting": "uninjected oocytes; 50 µM zinc", "result": "+8.6±1.9 nA"},
      {"measurement": "additional inward current in response to zinc", "setting": "[5]; 50 µM zinc, after AM546, 'over' refers to magnitude", "result": "over −6 µA"},
      {"measurement": "current in response to zinc alone", "setting": "[5]; 50 µM zinc, before AM546, no exogenous ATP, N = 12", "result": "−2.9±0.9", "unit": "µA"}
    ]},
    {"compound": "CSS(C)(=O)=O", "note": "[MMTS, Methyl Methanethiosulfonate]", "values": [
      {"measurement": "restoration of ability to respond to ATP after test compound", "setting": "[2]", "result": "None of these compounds restored the ability"},
      {"measurement": "restoration of ability to respond to ATP after test compound", "setting": "[1]", "result": "None of these compounds restored the ability"}
    ]},
    {"compound": "Alexa Fluor 488 C5-maleimide [AM-488]", "values": [
      {"measurement": "Response after challenge compound (nA) 100 µM Zn", "setting": "[1]; then challenge compound AM-546", "result": "−10±9", "unit": "nA"},
      {"measurement": "Response after challenge compound (nA) 1,000 µM ATP", "setting": "[1]; then challenge compound AM-546", "result": "−10±3", "unit": "nA"},
      {"measurement": "Response after challenge compound (nA) pH 6.5", "setting": "[1]; then challenge compound AM-546", "result": "−16±5", "unit": "nA"},
      {"measurement": "binding to and activation of K69C receptors", "setting": "[1]", "result": "could bind to, but not activate"}
    ]},
    {"compound": "Cc1ccc(C(=O)Nc2ccc(S(=O)(=O)O)c3cc(S(=O)(=O)O)cc(S(=O)(=O)O)c23)cc1NC(=O)c1cccc(NC(=O)Nc2cccc(C(=O)Nc3cc(C(=O)Nc4ccc(S(=O)(=O)O)c5cc(S(=O)(=O)O)cc(S(=O)(=O)O)c45)ccc3C)c2)c1", "note": "[suramin, Suramin]", "values": [
      {"measurement": "outward suramin currents due to inhibition of basal ATP", "setting": "wild type rP2X2 [4]; cells with maximal currents to saturating ATP of about −20 µA", "result": "10–500 nA"},
      {"measurement": "Hill coefficient (suramin)", "setting": "wild type rP2X2 [4]; no exogenous ATP, N = 11", "result": "1.2±0.1"},
      {"measurement": "IC50", "setting": "wild type rP2X2 [4]; read-out: suramin IC50 (outward current response)", "result": "8.3 ± 1.1", "unit": "µM"},
      {"measurement": "IC50 for suramin", "setting": "[6]", "result": "normal"},
      {"measurement": "Hill coefficient (suramin activation)", "setting": "[1]; [7]", "result": "1.1±0.1"},
      {"measurement": "maximal response to suramin (inward current)", "setting": "[1]; [7]", "result": "−450±51", "unit": "nA"},
      {"measurement": "response to suramin", "setting": "[1]; K69C prior to AM546 treatment, no exogenous ATP", "result": "no response"},
      {"measurement": "EC50", "setting": "[1]; read-out: suramin EC50 (activation)", "result": "52 ± 5", "unit": "µM"},
      {"measurement": "average suramin response", "setting": "uninjected oocytes", "result": "−1.3±1.9", "unit": "nA"}
    ]},
    {"compound": "Nc1ncnc2c1ncn2C1OC(COP(=O)(O)OP(=O)(O)OP(=O)(O)O)C(O)C1O", "note": "(stereo not drawn) [ATP, Disodium ATP]", "values": [
      {"measurement": "EC50", "setting": "[2]; MTSEA-modified K308C", "result": "374 ± 35", "unit": "µM"},
      {"measurement": "Hill coefficient (ATP)", "setting": "[2]; MTSEA-modified K308C", "result": "1.3±0.1"},
      {"measurement": "Hill Coefficient (typical value for wild type rP2X2)", "setting": "wild type rP2X2 [3]; typical value used to estimate basal ATP levels, ref not given", "result": 1.5},
      {"measurement": "inward current", "setting": "wild type rP2X2 [4]; 1,000 µM ATP, same RNA concentration as K69C, 'over' refers to magnitude", "result": "over −20 µA"},
      {"measurement": "EC50", "setting": "wild type rP2X2 [4]; wild type rP2X2", "result": "32 ± 1", "unit": "µM"},
      {"measurement": "ATP response", "setting": "[1]; AM546-modified K69C, 1,000 µM ATP, 'greater than' refers to magnitude", "result": "greater than −100 nA"},
      {"measurement": "EC50", "setting": "[1]; MTSEA-modified K69C", "result": "924 ± 102", "unit": "µM"},
      {"measurement": "Hill coefficient (ATP)", "setting": "[1]; MTSEA-modified K69C", "result": "1.4±0.1"},
      {"measurement": "EC50", "setting": "[5]", "result": "~145", "unit": "µM"}
    ]},
    {"compound": "Alexa Fluor 568 C5-maleimide [AM-568]", "values": [
      {"measurement": "Response after challenge compound (nA) 100 µM Zn", "setting": "[1]; then challenge compound MTSEA", "result": "−9±4", "unit": "nA"},
      {"measurement": "Response after challenge compound (nA) 1,000 µM ATP", "setting": "[1]; then challenge compound MTSEA", "result": "−41±9", "unit": "nA"},
      {"measurement": "Response after challenge compound (nA) pH 6.5", "setting": "[1]; then challenge compound MTSEA", "result": "−25±0", "unit": "nA"},
      {"measurement": "binding to and activation of K69C receptors", "setting": "[1]", "result": "could bind to, but not activate"}
    ]}
  ]
}
